{
  "source": "patent US10421761B2",
  "about": "“Compounds for kinase modulation, and indications therefor” (Plexxikon Inc., priority 2013, dated 2019)",
  "key": {"[1]": {"test_system": "B9 cells", "assay": "Anchorage-independent growth assay of B9 cells in soft agar", "assay_type": "cell-based, mouse", "details": "3 weeks; for effect on vemurafenib-induced B9 colony formation: combination with vemurafenib, soft agar", "procedure": "Anchorage-independent growth assay. 2.5×10^4 B9 cells were plated in each well of a six-well plate with a bottom layer of 1% and a top layer of 0.4% low melting agar (Sigma A4018, Dallas, Tex.) containing RPMI1640 medium with 10% FBS. For RAF inhibitor study, B9 cells grown in soft agar were treated with vemurafenib, compound P-1000 or compound A at indicated concentration or dimethyl sulfoxide (DMSO) for 3 weeks. For EGFR ligand study, B9 cells grown in soft agar were treated with AREG (R&D systems 989-AR, Minneapolis, Minn.), TGFα (R&D systems 239-A, Minneapolis, Minn.) or HB-EGF (R&D systems 259-HE, Minneapolis, Minn.) at the indicated concentrations for 3 weeks. For vemurafenib and erlotinib combination study, B9 cells grown in soft agar were treated with vemurafenib, erlotinib or a combination of the two compounds at the indicated concentrations or DMSO for 3 weeks. Anchorage-independent colonies ≥100 μm were scored using AxioVision Rel 4.8 software (CarlZeiss, Wake Forest, N.C.).\nB9 cells grown in soft agar were treated with AREG, TGFα or HBEGF at the indicated concentrations for 3 weeks. Anchorage-independent colonies ≥100 μm were scored. B9 cells grown in soft agar were treated with vemurafenib or a combination of vemurafenib and erlotinib at the indicated concentrations for 3 weeks. Anchorage-independent colonies ≥100 μm were scored."}, "[2]": {"test_system": "gastric cancer cell line MKN28", "details": "cited from earlier work"}, "[3]": {"test_system": "mutant BRAF V600 driven melanoma", "details": "cited from earlier work"}, "[4]": {"test_system": "A375 (BRAF V600E) cell line", "assay": "A375 P-ERK inhibition assay (AlphaScreen)", "assay_type": "cell-based, human", "details": "BRAF V600E cell line A375", "in_short": "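Phospho-ERK1/2 (Thr202/Tyr204) detected in lysates by AlphaScreen proximity signal, pairing a total-ERK antibody with a phospho-specific antibody. Before lysis, A375 cells received compound as an 8-point titration for one hour at 37° C.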"}, "[5]": {"test_system": "B9 (HRAS Q61L) cell line", "assay": "B9 P-ERK cell activation assay (AlphaScreen)", "assay_type": "cell-based, mouse", "details": "RAS mutant cell line B9; one hour treatment", "in_short": "(§1)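 Phospho-ERK1/2 (Thr202/Tyr204) in lysates quantified via AlphaScreen bead proximity, after one-hour, 37° C. exposure of cells to eight compound concentrations. Lines: IPC-298 human melanoma with activated NRAS; B9 mouse squamous carcinoma with activated HRAS.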"}, "[6]": {"test_system": "IPC-298 (NRAS Q61L) cell line", "assay": "IPC-298 P-ERK cell activation assay (AlphaScreen)", "assay_type": "cell-based, human", "details": "RAS mutant cell line IPC-298; one hour treatment", "in_short": "as §1"}},
  "note": "“Also recorded” adds a separate entry of the source.",
  "data": [
    {"smiles": "C#Cc1cccc(Nc2ncnc3cc(OCCOC)c(OCCOC)cc23)c1", "note": "[Erlotinib]", "values": [
      {"measurement": "effect on vemurafenib-induced B9 colony formation", "setting": "[1]", "value": "inhibited"},
      {"measurement": "effect on vemurafenib-induced B9 colony formation", "setting": "[1]; listed as erlotinib", "value": "antagonizes vemurafenib-induced B9 colony formation"}
    ]},
    {"smiles": "CS(=O)(=O)Nc1ccc([N+](=O)[O-])cc1OC1CCCCC1", "note": "[NS-398]", "values": [
      {"measurement": "proliferation and growth of MKN28", "setting": "[2]", "value": "significantly inhibit proliferation and growth"}
    ]},
    {"smiles": "CCCS(=O)(=O)Nc1ccc(F)c(C(=O)c2c[nH]c3ncc(Cl)cc23)c1F", "note": "[P-1000, N-[3-(5-chloro-1H-pyrrolo[2,3-b]pyridine-3-carbonyl)-2,4-difluoro-phenyl]propane-1-sulfonamide]", "values": [
      {"measurement": "B9 colony formation / anchorage-independent growth in soft agar", "setting": "[1]; colonies ≥100 μm scored", "value": "stimulated B9 colony formation; also recorded: increased anchorage independent cell growth"}
    ]},
    {"smiles": "CC(C)(C)c1nc(-c2cccc(NS(=O)(=O)c3c(F)cccc3F)c2F)c(-c2ccnc(N)n2)s1", "note": "[dabrafenib, reference compound]", "values": [
      {"measurement": "tumor response in patients", "setting": "[3]", "value": "objective tumor response"},
      {"measurement": "pERK inhibition", "setting": "[4]", "value": "highly potent inhibitor"},
      {"measurement": "pERK activation", "setting": "[5]", "value": "unusual bell-shaped pERK activation curve"},
      {"measurement": "pERK activation", "setting": "[6]", "value": "unusual bell-shaped pERK activation curve"}
    ]},
    {"smiles": "COc1ccc2c(c1)c(CC(=O)O)c(C)n2C(=O)c1ccc(Cl)cc1", "note": "[indomethacin]", "values": [
      {"measurement": "proliferation and growth of MKN28", "setting": "[2]", "value": "significantly inhibit proliferation and growth"}
    ]}
  ]
}
